According to the supplement of paper PMC10307832:

How the values were obtained:
Assay in all cases: relative viability (nuclei count vs DMSO), 5 days (fraction); higher = more cells survive
[1] = compound: Cc1ccc2nc(NCCN)c3ncc(C)n3c2c1 + Nc1ncn([C@H]2C[C@H](O)[C@@H](CO)O2)c(=O)n1 [Decitabine] (partner 2 µM)
How it was run: (§1)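 Nuclei were stained with Hoechst during a one-step fixation (final 0.05% Triton X-100, 1% formaldehyde, 1 ug/ml Hoechst) carried out 5 days after dosing, then counted on 4× images. The cells, lung cancer lines in 1536-well plates, had been dosed by pin tool the day after seeding with one drug alone or a fixed anchor-drug dose plus five library-drug doses (not always all listed) in √10 steps. Relative viability is the nuclei count in treated wells divided by that in vehicle wells, and each value is the median of duplicate plates.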

[2] = compound: Cc1ccc2nc(NCCN)c3ncc(C)n3c2c1 + CC(=O)Nc1cccc(-n2c(=O)n(C3CC3)c(=O)c3c(Nc4ccc(I)cc4F)n(C)c(=O)c(C)c32)c1 [Trametinib] (partner 0.02 µM)
How it was run: as §1

[3] = compound: Cc1ccc2nc(NCCN)c3ncc(C)n3c2c1 + N=C(N)NC(=N)NCCc1ccccc1 [Phenformin] (partner 250 µM)
How it was run: as §1

Salubrinal + Navitoclax = compound: O=C(/C=C/c1ccccc1)NC(NC(=S)Nc1cccc2cccnc12)C(Cl)(Cl)Cl [Salubrinal] + CC1(C)CCC(c2ccc(Cl)cc2)=C(CN2CCN(c3ccc(C(=O)NS(=O)(=O)c4ccc(N[C@H](CCN5CCOCC5)CSc5ccccc5)c(S(=O)(=O)C(F)(F)F)c4)cc3)CC2)C1 [Navitoclax] (partner 0.5 µM)
How it was run: as §1

Cell Line	relative viability ([1]; first compound 0.04 µM)	relative viability ([1]; first compound 0.1265 µM)	relative viability ([1]; first compound 1.265 µM)	relative viability ([1]; first compound 4 µM)	relative viability ([2]; first compound 0.04 µM)	relative viability ([2]; first compound 0.1265 µM)	relative viability ([2]; first compound 1.265 µM)	relative viability ([2]; first compound 4 µM)	relative viability ([3]; first compound 0.04 µM)	relative viability ([3]; first compound 0.1265 µM)	relative viability ([3]; first compound 1.265 µM)	relative viability ([3]; first compound 4 µM)	relative viability (Salubrinal + Navitoclax; first compound 0.08 µM)	relative viability (Salubrinal + Navitoclax; first compound 0.8 µM)	relative viability (Salubrinal + Navitoclax; first compound 2.53 µM)	relative viability (Salubrinal + Navitoclax; first compound 8 µM)	relative viability ([1]; first compound 0.4 µM)	relative viability ([2]; first compound 0.4 µM)	relative viability ([3]; first compound 0.4 µM)	relative viability (Salubrinal + Navitoclax; first compound 0.253 µM)
NCI-H1792	0.614	0.553	0.511	0.461	0.645	0.397	0.405	0.488	0.308	0.436	0.411	0.358	0.745	1.26	0.669	0.458	–	–	–	–
ChaGo-K-1	0.542	0.546	0.545	0.512	0.884	0.924	0.849	0.77	0.534	0.544	0.412	0.435	1.07	1.58	1.37	1.12	0.511	0.904	0.485	0.849
COR-L23	0.455	0.405	0.488	0.411	0.581	0.564	0.648	0.506	0.464	0.448	0.468	0.37	1.2	1.15	0.927	0.865	0.406	0.624	0.45	0.952
COR-L 105	0.758	0.738	0.673	0.632	0.423	0.506	0.407	0.414	0.647	0.555	0.487	0.425	0.715	0.76	0.765	0.723	0.722	0.478	0.502	0.718
LK-2	0.289	0.393	0.311	0.297	0.921	0.576	0.617	0.672	0.358	0.559	0.325	0.415	1.07	1.05	0.958	0.921	0.337	0.682	0.307	0.793
201T	0.838	0.818	0.901	0.839	0.72	0.696	0.738	0.684	0.46	0.417	0.465	0.453	1.2	1.24	1.19	1.22	0.862	0.713	0.452	1.2
HCC-44	0.981	0.946	0.94	1	1.11	0.971	1.1	1.01	0.186	0.247	0.184	0.146	1.06	0.999	0.97	0.802	0.923	1.03	0.157	0.899
NCI-H596	1.02	0.967	0.887	0.897	0.834	0.732	0.74	0.763	0.695	0.787	0.614	0.826	1.01	0.959	0.869	1.01	0.979	0.806	0.644	1.09
